Where a name gives a salt, the structure may show the parent alone.
How the values were obtained:
Assay type in all cases: cell-based, human
imDAPs [1] = assay: qRT-PCR analysis of imDAP-specific markers in expanded imDAPs; conditions: Example 3; 3 μM CHIR99021 (vs 0, 1.25 μM) during expansion; 5 days; FIG. 1C
Experimental: • 1. Individualize and collect cells by either Accutase or TrypLE treatment. • 2. Wash cells with 1 ml PBS and pellet cells at 250×g for 15 sec. • 3. Remove supernatant, add ˜200 μl of 4% PFA, mix and fix for 10 min at RT. • 4. Pellet cells at 350×g for 5 min. • 5. Wash cells by 1 ml of FACS buffer and pellet cells at 350×g for 5 min. • 6. Remove supernatant, add 200 μl/tube of FACS buffer/0.1% TritonX, mix for 10 min at RT. • 7. Wash cells by 1 ml of FACS buffer and pellet cells at 350×g for 5 min. • 8. Remove supernatant, add 200 μl/tube of primary antibody diluted in FACS buffer, mix gently, and incubate for 30 min at RT. • 9. Wash cells by 1 ml of FACS buffer and pellet cells at 350×g for 5 min. • 10. Remove supernatant, and add 200 μl of secondary antibody diluted in FACS buffer, mix gently, and incubate for 30 min at RT. • 11. Wash cells by 1 ml of FACS buffer and pellet cells at 300×g for 5 min. • 12. Remove supernatant, add 200 μl of FACS buffer, and run samples on the flow cytometry. (2) qRT-PCR • 1. For qRT-PCR analysis of mRNA gene expression, RNA should be harvested from at least 2×10^6 cells. • 2. […] Analyze the samples by running a quantitative PCR on the LightCycler 480 instrument using a 40× cycle two-step protocol with a 60° C., 60 sec annealing/elongation step and a 95° C., 30 sec denaturation step. […]

imDAPs [2] = assay: Flow cytometry (FACS) analysis of FOXA2 expression in expanded imDAPs; conditions: Example 6
Experimental: • 1. Individualize and collect cells by either Accutase or TrypLE treatment. • 2. Wash cells with 1 ml PBS and pellet cells at 250×g for 15 sec. • 3. Remove supernatant, add ˜200 μl of 4% PFA, mix and fix for 10 min at RT. • 4. Pellet cells at 350×g for 5 min. • 5. Wash cells by 1 ml of FACS buffer and pellet cells at 350×g for 5 min. • 6. Remove supernatant, add 200 μl/tube of FACS buffer/0.1% TritonX, mix for 10 min at RT. • 7. Wash cells by 1 ml of FACS buffer and pellet cells at 350×g for 5 min. • 8. Remove supernatant, add 200 μl/tube of primary antibody diluted in FACS buffer, mix gently, and incubate for 30 min at RT. • 9. Wash cells by 1 ml of FACS buffer and pellet cells at 350×g for 5 min. • 10. Remove supernatant, and add 200 μl of secondary antibody diluted in FACS buffer, mix gently, and incubate for 30 min at RT. • 11. Wash cells by 1 ml of FACS buffer and pellet cells at 300×g for 5 min. • 12. Remove supernatant, add 200 μl of FACS buffer, and run samples on the flow cytometry. (2) qRT-PCR • 1. For qRT-PCR analysis of mRNA gene expression, RNA should be harvested from at least 2×10^6 cells. • 2. Harvest cells, add 350 μl of buffer RLT+1% (vol/vol) s-mercaptoethanol to the well, transfer the lysate to a 1.5 ml tube, and put it immediately on ice. • 3. Perform RNA extraction using the Tiangen Kit (DP430), and follow the manufacturer's protocol ‘Purification of total RNA from animal and human cells’. • 4. When the RNA extraction was completed, determine the RNA concentration using a Nanodrop instrument. • 5. Perform the first-strand cDNA synthesis reaction with 1 μg of RNA using the HiScript TM II Q RT SuperMIX for qPCR(+gDNA wiper) Kit (Vazyme, #R223-01) for RT-qPCR. Follow the manufacturer's ‘First-Strand cDNA Synthesis’ protocol. This reaction would yield a 20 μl product. • 6. Dilute the 10 μl cDNA product in 80 μl of nuclease-free water. • 7. Pipette the diluted cDNA product (1 μl), Sybr green master mix (5 μl, Transgen, #AQ131) and 0.95 μM reverse/forward primer mix (4 μl) into a 384-well PCR plate in triplicate, either manually or using an automated pipetting robot. The complete primer panel included the target genes and the housekeeping gene (RPL13A). In the analysis, also included a sample of undifferentiated hPSCs to determine the gene expression levels relative to the expression in hPSCs. • 8. Analyze the samples by running a quantitative PCR on the LightCycler 480 instrument using a 40× cycle two-step protocol with a 60° C., 60 sec annealing/elongation step and a 95° C., 30 sec denaturation step. The average CT values from the three technical replicates were used for calculations of relative gene expression using the ΔΔCT method. For each gene, calculate the FC of the differentiated samples relative to the undifferentiated control sample using the housekeeping gene for normalization. Next, calculate the average of the FC values on the basis of the housekeeping gene. (3) Immunocytochemical Analysis • 1. Cell fixation: Remove the medium from the cells and wash with PBS. Add 4% (wt/vol) PFA (e.g., 200 μl to a well in a 48-well plate) and incubate at room temperature (RT) for 15 min. after incubation, wash the cells three times in PBS. • 2. Blocking: Remove PBS from the wells and add blocking solution to the cells, add enough volume to cover the cells. Leave the cells in blocking solution for 1 h at RT. • 3. Primary antibodies incubation: Remove the blocking solution from the cells and add the primary antibody solutions (˜100 μl/cm^2). […]

imDAPs [3] = assay: imDAP maturation: cell morphology, adhesion and cell yield; conditions: Example 13; maturation media supplemented with 10 μM Y27632; day 7; FIG. 8A
Experimental: imDAPs were produced according to the method described in CN201910169525.0, and expanded as described in Example 10. […] MM-H used in Example 11 contained the following components: Neurobasal™ medium, 1% (v/v) Glutamax, 0.5 mM Db-cAMP sodium salt, 200 μM ascorbic acid, 20 ng/ml BDNF, 20 ng/ml GDNF, 1 ng/ml TGF-β3, 10 μM DAPT, HhPLT (0.5%, 1%, 2%). MM-B used in Example 11 contained the following components: Neurobasal, 1% (v/v) Glutamax, 0.5 mM Db-cAMP sodium salt, 200 μM ascorbic acid, 20 ng/ml BDNF, 20 ng/ml GDNF, 1 ng/ml TGF-β3, 10 μM DAPT, 2% (v/v) B27 (50×) (as control). The above HhPLT was produced from hPLT as follows. The hPLT was centrifuged at 3000 g for 30 min at 4° C. to obtain the supernatant, which was heated to 56° C. for 30 min. The suspension was finally cooled down to 4° C. at least 5 min, and spun at 3000 g for 30 min at 4° C. to obtain the HhPLT supernatant. Aliquots were prepared and stored at −80° C. until use. The above Medium was changed every 3rd day. On day 7, the imDAPs at early maturation stage were dissociated enzymatically with 1× TrypLE, centrifuged at 250 g for 5 minutes.
imDAPs were produced according to the method described in CN201910169525.0, and expanded as described in Example 10. […] Medium was changed every 3rd day. On day 7, the imDAPs at early maturation stage were dissociated enzymatically with 1× TrypLE, centrifuged at 250 g for 5 minutes. Cells were collected for RT-qPCR analysis of EN1, LMX1A, FOXA2, NURR1, SOX6 and TH gene expression. The maturation medium used in Example 12 contained the following components: Neurobasal™ medium, 1% (v/v) Glutamax, 1% (v/v) HhPLT, 0.5 mM Db-cAMP sodium salt, 200 μM ascorbic acid, 20 ng/mL BDNF, 20 ng/mL GDNF, 1 ng/mL TGF-β3, 10 μM DAPT.
imDAPs were produced according to the method described in CN201910169525.0, and expanded as described in Example 10. […] Cells were collected and counted by Vi-cell cytometer. The cells were analyzed by RT-qPCR for EN1, LMX1A, FOXA2, NURR1, SOX6 and TH gene expression. […]

Row | Compound | mDAP marker expression (EN1, LMX1A, FOXA2) (imDAPs [1]) | percentage of Foxa2-expressing cells (imDAPs [2]; 10 μM Y27632 vs 5 μM Blebbistatin, VTN-coated, Day 6, FIG. 2) | percentage of Foxa2-expressing cells during passages (imDAPs [2]; medium with Y27632) | cell adhesion and growth (imDAPs [3])
1 | Cc1cnc(-c2cnc(NCCNc3ccc(C#N)cn3)nc2-c2ccc(Cl)cc2Cl)[nH]1 [CHIR99021] | allowed better maintenance of mDAP marker expression | – | – | –
2 | C[C@@H](N)[C@H]1CC[C@H](C(=O)Nc2ccncc2)CC1 [Y27632, (R)-(+)-trans-4-(1-aminoethyl)-N-(4-pyridyl) cyclohexanecarboxamide dihydrochloride] | – | capable of improving the percentage of Foxa2-expressing cells than Blebbistatin | still decreased during passages | could promote cell adhesion at a certain degree

— patent US12391919B2, “Culture medium, coating matrix and method for maturing midbrain dopaminergic progenitor cells” (NUWACELL BIOTECHNOLOGIES CO., LTD., priority 2022, dated 2025)
